The values that follow come from ChEMBL document CHEMBL2094269, “WEHI/Eskitis Trypanosoma b. brucei screening data”.

Data set [1] can be described thus: DNDI: Cytotoxicity against human MRC-5 lung fibroblast cells. The settings on record: IC50.
The subject of data set [2] is Trypanosoma brucei brucei. Kind of data set: microbe, parasite or virus in culture. It is filed as functional, organism-based, STIB 795. Conditions: Trypanosoma brucei, STIB 795.
Description: DNDI: Inhibition of Human African Trypanosomiasis (HAT), STIB 795, in vitro

A word on the IC50: it is the concentration at which inhibition is half-maximal. As to `O=C1c2cccc3cccc(c23)C(=O)N1CCNCCO`, the IC50 was over 4.17 µM in data set [1] and 4.5 µM in data set [2]. In the case of `CCN1CCN(c2cc(C)c3cc(NC(=O)c4ccccc4F)ccc3n2)CC1`, the IC50 in data set [2] is over 10.4 µM.

The compound `COc1ccc(C(=O)CSC2=C(C#N)C3(CCCCC3)C(C#N)=C(N)N2)cc1` came in with a half-inhibitory concentration (IC50) in data set [2] of over 10.4 µM. `CCN(CC)c1cc(C)c2cc(NC(=O)/C=C/c3ccccc3Cl)ccc2n1` displayed an IC50 in data set [2] of over 10.4 µM. For the compound `CCOC(=O)C1CCCN(C2=NC(=O)/C(=C/c3ccc(O)c(OC)c3)S2)C1` (stereo not drawn), the IC50 in data set [2] was over 10.4 µM. For the compound `CCCC(=O)NC(c1ccc2c(c1)OCO2)c1cc(Cl)c2cccnc2c1O` (stereo not drawn), the IC50 in data set [2] is over 10.4 µM. In data set [2], `Cc1ccc(CN2C(=O)CCC2C(=O)N2CCN(c3ccc(F)cc3)CC2)cc1` (stereo not drawn) returned a concentration for half-maximal inhibition (IC50) of over 10.4 µM. In turn, `COc1ccc(OC)c(/C=C/C(=O)Nc2ccc(C(=O)OCCC(C)C)cc2)c1` had an IC50 in data set [2] of over 10.4 µM. On the same count and under the same terms, the same measure for `N#CC1=C(N)OC2=C(CC/C2=C\c2ccccc2Cl)C1c1ccccc1Cl` (stereo not drawn): over 10.4 µM. Consider `CN(C)c1ccc(/C=C/c2sc3ccc4ccccc4c3[n+]2C)cc1`, for which the IC50 in data set [1] is over 2.08 µM; in data set [2], under 0.004 µM. As for `CC12C(=O)N(c3ccc(Cl)cc3O)C(=O)C1C1c3ccccc3C2c2ccccc21` (stereo not drawn), the IC50 in data set [2] is over 10.4 µM. On to `Cc1ccccc1-n1sc2ccccc2c1=O`, for which the IC50 in data set [1] is over 20.8 µM; in data set [2], 1.99 µM. For the compound `Cc1ccc(O)c(/N=N/c2nnc[nH]2)c1`, the values for the IC50 in data set [1] and in data set [2] were over 10.4 µM and 0.404 µM, respectively.

For the compound `O=C(Nc1ccc(Cl)c(-c2nc3ncccc3o2)c1)c1ccco1`, the results for the IC50 in data set [1] and in data set [2] were over 41.7 µM and 0.17 µM, respectively.

`CC1CCc2nc(SC3CC(=O)C4OCC3O4)nc(C(F)(F)F)c2C1` (stereo not drawn): the IC50 in data set [1] was over 20.8 µM; in data set [2], 2.62 µM. On the same counts, the results for `C/C(=C\c1ccccc1)c1nc2c(=O)n(C)c(=O)nc-2n(C)n1` are over 20.8 µM and 5.62 µM.

With `CN(C)CCOc1ccccc1C1NCCc2c1[nH]c1ccccc21` (stereo not drawn), the results for the IC50 in data set [1] and in data set [2] were over 20.8 µM and 1.28 µM, respectively. On the same counts, the results for `Cc1c(C)c(C)c2c(CC(C)N)c[nH]c2c1C` (stereo not drawn) are over 41.7 µM and 4.24 µM. Regarding `Cc1cccc2ccc(/C=C/c3ccc(N(C)C)cc3)[n+](C)c12`, the IC50 in data set [1] was over 4.17 µM; in data set [2] it was under 0.004 µM.

For the compound `Oc1c(C(c2ccc(C(F)(F)F)cc2)N2CCOCC2)ccc2cccnc12` (stereo not drawn), the IC50 in data set [1] was over 20.8 µM; in data set [2] it was 5.43 µM. Consider `CC(=O)NC(=S)NNC(=O)c1ccccc1OCc1ccccc1`, for which the IC50 is over 20.8 µM in data set [1] and 2.88 µM in data set [2]. Regarding `COc1ccc(N2C(=O)CN(Cc3ccccc3)C2=S)cc1Cl`, the IC50 in data set [1] was over 41.7 µM; in data set [2], 5.49 µM. With `COc1ccc(C(=O)C(C)N2C=CC=C/C2=C2\C=CC=CN2)cc1` (stereo not drawn), the IC50 in data set [1] is over 41.7 µM; in data set [2], 4.25 µM. In data set [1], `N=C(N)N/N=C1/C(=O)Nc2ccc(Br)cc21` gave an IC50 of over 41.7 µM. In data set [2], `C=CCN1C(=O)c2ccccc2Sc2ccc(C(=O)NCc3ccco3)cc21` gave a half-inhibitory concentration (IC50) of over 10.4 µM. In the case of `Cc1cc(C)n(-c2nc(N/N=C/c3cccs3)nc(Nc3ccccc3)n2)n1`, the IC50 in data set [2] is over 10.4 µM. For `Cc1c(NC(=O)CN2CCN(C(=O)c3ccccc3)CC2)n(C)c2ccccc12`, the half-inhibitory concentration (IC50) in data set [2] was over 10.4 µM.

For `CC(C)NC(=O)Nc1ccc(-c2noc(-c3ccc(Br)o3)n2)cc1`, the IC50 in data set [2] is over 10.4 µM. The compound `CN(CC(=O)Nc1nncs1)S(=O)(=O)c1ccc(Br)cc1` gave a half-inhibitory concentration (IC50) in data set [2] of over 10.4 µM. As for `CCOC(=O)N1CCN(c2ccc(/C=C(\C#N)c3nc4ccccc4[nH]3)o2)CC1`, in data set [2], the IC50 is over 10.4 µM. In data set [2], `CCOC(=O)c1c(NC(C)=O)sc2c1CCC(Sc1ccccc1)C2O` (stereo not drawn) returned an IC50 of over 10.4 µM. On to `Cc1ccsc1/C=C/C(=O)Nc1ccc2nc(N3CCCCC3)cc(C)c2c1`, for which, in data set [2], the IC50 was over 10.4 µM. Compound `CCN1CCC(N(Cc2cccs2)C(=O)Nc2ccc(C)c(Cl)c2)CC1` registered an IC50 in data set [2] of over 10.4 µM. On the same count and under the same terms, with `CCOC(=O)c1cc2c(=O)n3ccccc3nc2n(CCCn2ccnc2)c1=N` the figure was over 10.4 µM; with `O=C(NN=C(/C=C/c1ccccc1)c1ccccc1)c1cc2ccccc2cc1O`, over 10.4 µM; with `COc1ccccc1-n1c(C)cc(/C=C2\C(=N)N3C(C)=CSC3=NC2=O)c1C`, over 10.4 µM. In data set [2], `O=C(Nc1cccc(Cl)c1)C1CCN(c2ncc(-c3ccccc3)cn2)CC1` gave an IC50 of over 10.4 µM.

Take `OCCN1CCN(C2Cc3ccccc3Sc3cc(Cl)c(F)cc32)CC1` (stereo not drawn): in data set [2], the IC50 was over 10.4 µM. In turn, `C/C(=C\c1nsc(Nc2ccc(F)c(Cl)c2)n1)NCCC1=CCCCC1` returned an IC50 in data set [2] of over 10.4 µM. For `C/C(=N/Nc1ccc(F)cc1F)c1cc2cc(Br)ccc2oc1=O`, the IC50 in data set [2] is over 10.4 µM.

In the case of `COc1ccc(C(=O)c2ccc(N3CCNCC3)c(F)c2)cc1Br`, the IC50 in data set [2] is over 10.4 µM.

As to `O=C(Nc1ccccc1C(=O)N/N=C/c1ccc(O)cc1O)c1ccc(F)cc1`, the half-inhibitory concentration (IC50) in data set [2] was over 10.4 µM. As to `Oc1c(C(Nc2ccccn2)c2ccc(OC(F)F)cc2)ccc2cccnc12` (stereo not drawn), the IC50 in data set [2] is over 10.4 µM.

In turn, `CC(=O)NC1=C(N2CCN(c3ccc(F)cc3)CC2)C(=O)c2ccccc2C1=O` came in with an IC50 in data set [2] of over 10.4 µM.
